{"source": "paper PMC4627284", "about": "“High-throughput simultaneous screen and counterscreen identifies homoharringtonine as synthetic lethal with von Hippel-Lindau loss in renal cell carcinoma” (Oncotarget, 2015)", "key": {"[1]": {"test_system": "VHL-deficient 786-O cells", "test": "Cell death by trypan blue exclusion assay", "assay_type": "cell-based, human", "details": "36 hours", "description": "(§1) Figure 2 Homoharringtonine (HHT) preferentially induces cell death in VHL-deficient 786-O cells A. 786-O cells with VHL mutation (green) or with VHL-reconstituted (red) were treated with different concentrations of HHT (0, 25, 50, or 100 nM) for 0, 6, 12, 24, 36, or 48 hours, and cell death was measured by trypan blue exclusion assay (n = 3 for each concentration and time point; *p < 0.05, **p < 0.001, ***p < 0.0001 between 786-O EV cells and 786-O with VHL reconstituted at the same concentration and time point). B. Western blot analysis of 786-O EV^GFP (EV) or VHL^mCh (VHL) cells treated with 100 nM HHT for 0, 3, 6, 12, or 24 hours. Blots were probed for Bcl-xL and Caspase 9, and α-Tubulin as loading control. Arrow indicates the cleaved Caspase 9 product."}, "[2]": {"test_system": "VHL-reconstituted 786-O cells", "test": "Cell death by trypan blue exclusion assay", "assay_type": "cell-based, human", "details": "36 hours", "description": "as §1"}, "[3]": {"test_system": "VHL-mutant patient-derived ccRCC tumorgraft lines", "test": "ccRCC tumorgraft model, six VHL-mutant tumorgraft lines", "assay_type": "in vivo, NOD/SCID mice", "description": "(§2) We selected 6 independently-derived ccRCC tumorgraft lines that were confirmed to have VHL mutation. The mice (3-5 mice per tumorgraft line) were treated with either HHT (0.7 mg/kg), vehicle (as a negative control), or rapamycin (0.5 mg/kg; as a positive control). In total, 65 tumorgraft bearing mice were evaluated for these experiments in time courses lasting ~28 days, with tumor growth measured every 3 or 4 days.\n(§3) Figure 3 HHT inhibits tumor growth in a ccRCC tumorgraft model A-F, Tumorgraft lines were treated with vehicle control, HHT (0.7 mg/kg), rapamycin (0.5 mg/kg), (or the combination, where indicated) and tumor growth was measured on the indicated days. Day 0 represents the first day of treatment.\n(§4) Tumorgrafts were generated and propagated as described previously, with tumor samples implanted subcutaneously into the flank of the mouse for drug trials. Briefly, 4- to 8-week-old NOD/SCID mice were anesthetized with isoflurane and implanted subcutaneously with 64 mm^3 tumor fragments (cohorts 2-20). Once tumors reached an average of at least ~250 mm^3, drug treatment was begun. The mice were treated with vehicle, 0.7 mg/kg homoharringtonine (HHT) via gavage twice daily, or 0.5 mg/kg rapamycin given by IP injection once every 48 hours. Tumor size (volume) was measured twice weekly and was obtained by multiplying tumor length, width, and depth using calipers. To assess toxicity, mouse weight was monitored once weekly.\nSections from tumors were stained with hematoxylin and eosin (H&E) as described previously."}, "XP144 tumorgraft line": {"test_system": "XP144 tumorgraft line", "test": "ccRCC tumorgraft model, line XP144", "assay_type": "in vivo, NOD/SCID mice", "details": "0.7 mg/kg by gavage twice daily", "description": "as §2, §3\nas §4, with “The mice were treated with vehicle, 0.7 mg/kg homoharringtonine (HHT) via gavage twice daily, or 0.5 mg/kg rapamycin given by IP injection once every 48 hours.” left out"}}, "data": [{"smiles": "COC(=O)C[C@](O)(CCCC(C)(C)O)C(=O)O[C@@H]1C(OC)=C[C@]23CCCN2CCc2cc4c(cc2[C@H]13)OCO4", "note": "[HHT, homoharringtonine]", "values": [{"measurement": "VHL-deficient cells killed", "setting": "[1]; 50 nM", "value": "30-40%"}, {"measurement": "dead VHL-deficient cells", "setting": "[1]; 100 nM", "value": "50-60%"}, {"measurement": "VHL-reconstituted cells dead", "setting": "[2]; 50 nM", "value": "< 10", "unit": "%"}, {"measurement": "dead VHL-reconstituted cells", "setting": "[2]; 100 nM", "value": "less than 25%"}, {"measurement": "tumorgraft lines with tumor growth inhibited", "setting": "[3]; 0.7 mg/kg by gavage twice daily, lines responding / lines tested", "value": "2/6"}, {"measurement": "synergistic effects with rapamycin in the tumorgrafts", "setting": "[3]; HHT 0.7 mg/kg plus rapamycin 0.5 mg/kg", "value": "did not observe synergistic effects"}, {"measurement": "histology of harvested tumors (H&E)", "setting": "[3]; XP26 and XP144 cohorts", "value": "induced tumor cell necrosis"}, {"measurement": "tumor weight smaller than vehicle-treated", "setting": "XP144 tumorgraft line", "value": 32, "unit": "%"}, {"measurement": "tumor growth inhibition (tumor volume) vs vehicle", "setting": "XP144 tumorgraft line; ~28 days", "value": 43.0, "unit": "%"}]}]}
